Source: PubChem BioAssay AID1919000 (Molecular Pharmacology Branch, DTP, NCI, 2023)

Test system: 653999-131-R-J2-PDC complex spheroids, growth % test/control
Assay: Anticancer human tumor 653999-131-R-J2-PDC patient-derived lung adenocarcinoma cell line growth inhibition [AhR]
Details: for IC50: curve of first compound; for viability, T/C: stronger effect = lower value
How it was run: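 Spheroids combined tumor cells with HUVEC endothelial cells and human MSCs as stroma. AhR antagonists were paired with standard or investigational drugs, each dosed in half-log steps down from near clinical Cmax, or from 10 microM where Cmax was unknown.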

[1] = second compound 0.1 µM, first compound 0.0316 µM
[2] = second compound 0.1 µM, first compound 0.1 µM
[3] = second compound 0.1 µM, first compound 0.316 µM
[4] = second compound 0.1 µM, first compound 1 µM
[5] = second compound 0.316 µM, first compound 0.0316 µM
[6] = second compound 0.316 µM, first compound 0.1 µM
[7] = second compound 0.316 µM, first compound 0.316 µM
[8] = second compound 0.316 µM, first compound 1 µM
[9] = second compound 1 µM, first compound 0.0316 µM
[10] = second compound 1 µM, first compound 0.1 µM
[11] = second compound 1 µM, first compound 0.316 µM
[12] = second compound 1 µM, first compound 1 µM
[13] = second compound 3.16 µM, first compound 0.0316 µM
[14] = second compound 3.16 µM, first compound 0.1 µM
[15] = second compound 3.16 µM, first compound 0.316 µM
[16] = second compound 3.16 µM, first compound 1 µM
[17] = second compound 10 µM, first compound 0.0316 µM
[18] = second compound 10 µM, first compound 0.1 µM
[19] = second compound 10 µM, first compound 0.316 µM
[20] = second compound 10 µM, first compound 1 µM
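Also: spheroids exposed to agents for seven days.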
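For viability, T/C in this document: 100% = DMSO vehicle control viability.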

IC50 (second compound 0.1 µM) [nM] | IC50 (second compound 0.316 µM) [nM] | IC50 (second compound 1 µM) [nM] | IC50 (second compound 3.16 µM) [nM] | IC50 (second compound 10 µM) [nM] | SMILES | viability, T/C [1] [%] | viability, T/C [2] [%] | viability, T/C [3] [%] | viability, T/C [4] [%] | viability, T/C [5] [%] | viability, T/C [6] [%] | viability, T/C [7] [%] | viability, T/C [8] [%] | viability, T/C [9] [%] | viability, T/C [10] [%] | viability, T/C [11] [%] | viability, T/C [12] [%] | viability, T/C [13] [%] | viability, T/C [14] [%] | viability, T/C [15] [%] | further results
123 | 129 | 170 | 149 | < 3.16 | CC1COCCN1c1cc(-c2ccnn2C)c2ccnc(-c3ccn[nH]3)c2n1 (stereo not given) + Cc1cncc(-c2nc(NCCc3c[nH]c4ccccc34)c3ncn(C(C)C)c3n2)c1 | 76.3 | 52.3 | 36.7 | 25.2 | 84.8 | 53.5 | 35.5 | 26.4 | 89.5 | 65.6 | 31.6 | 23.5 | 89.6 | 56.2 | 38.5 | viability, T/C (second compound 0.1 µM, first compound 0.00316 µM): 100%; viability, T/C (second compound 0.1 µM, first compound 0.01 µM): 94.6%; viability, T/C (second compound 0.316 µM, first compound 0.00316 µM): 92.8%; viability, T/C (second compound 0.316 µM, first compound 0.01 µM): 92.4%; viability, T/C (second compound 1 µM, first compound 0.00316 µM): 107%; viability, T/C (second compound 1 µM, first compound 0.01 µM): 96.3%; viability, T/C (second compound 3.16 µM, first compound 0.00316 µM): 98.2%; viability, T/C (second compound 3.16 µM, first compound 0.01 µM): 98.1%; viability, T/C [16]: 29.1%; viability, T/C (second compound 10 µM, first compound 0.00316 µM): 36.8%; viability, T/C (second compound 10 µM, first compound 0.01 µM): 46.9%; viability, T/C [17]: 38%; viability, T/C [18]: 34.6%; viability, T/C [19]: 25.7%; viability, T/C [20]: 27%
8430 | 9850 | > 10000 | 9800 | 2700 | CC1COCCN1c1cc(C2(S(C)(=N)=O)CC2)nc(-c2ccnc3[nH]ccc23)n1 (stereo not given) + Cc1cncc(-c2nc(NCCc3c[nH]c4ccccc34)c3ncn(C(C)C)c3n2)c1 | 105 | 102 | 94.7 | 104 | 103 | 111 | 108 | 94.8 | 107 | 110 | 124 | 104 | 101 | 111 | 112 | viability, T/C (second compound 0.1 µM, first compound 3.16 µM): 86.1%; viability, T/C (second compound 0.1 µM, first compound 10 µM): 43.7%; viability, T/C (second compound 0.316 µM, first compound 3.16 µM): 82%; viability, T/C (second compound 0.316 µM, first compound 10 µM): 49.5%; viability, T/C (second compound 1 µM, first compound 3.16 µM): 87.1%; viability, T/C (second compound 1 µM, first compound 10 µM): 55.1%; viability, T/C [16]: 99%; viability, T/C (second compound 3.16 µM, first compound 3.16 µM): 85%; viability, T/C (second compound 3.16 µM, first compound 10 µM): 49.2%; viability, T/C [17]: 71.4%; viability, T/C [18]: 70.6%; viability, T/C [19]: 64.5%; viability, T/C [20]: 56.1%; viability, T/C (second compound 10 µM, first compound 3.16 µM): 49.6%; viability, T/C (second compound 10 µM, first compound 10 µM): 44.2%
